Results reported in the NIST ThermoML archive (doi:10.1016/j.jct.2018.02.021).
“And” between values parts separate entries of the source, which are not always exact repeats. Identical values can stand only once.

Assay: xn = mol fraction of the nth substance listed
Settings: Gas, Buoyancy - hydrostatic balance with magnetic suspension - two sinkers

CC [ethane] + O=C=O
Settings	mass density
273.15 K, 531.09 kPa, x1 = 0.2003	10.008 kg/m3
273.15 K, 531.52 kPa, x1 = 0.2003	10.0165 kg/m3
273.15 K, 531.92 kPa, x1 = 0.2003	10.0243 kg/m3
273.15 K, 534.39 kPa, x1 = 0.2003	10.0711 kg/m3
273.15 K, 534.79 kPa, x1 = 0.2003	10.0789 kg/m3
273.15 K, 535.19 kPa, x1 = 0.2003	10.087 kg/m3
273.15 K, 535.63 kPa, x1 = 0.2003	10.0955 kg/m3
273.15 K, 544.52 kPa, x1 = 0.2003	10.2735 kg/m3
273.15 K, 544.86 kPa, x1 = 0.2003	10.2801 kg/m3
273.15 K, 548.14 kPa, x1 = 0.4995	9.33133 kg/m3
273.15 K, 551.38 kPa, x1 = 0.05023	10.9267 kg/m3
273.15 K, 1023.8 kPa, x1 = 0.2003	20.0462 kg/m3
273.15 K, 1024.6 kPa, x1 = 0.2003	20.0627 kg/m3
273.15 K, 1025.4 kPa, x1 = 0.2003	20.0779 kg/m3
273.15 K, 1026.6 kPa, x1 = 0.2003	20.1024 kg/m3
273.15 K, 1027 kPa, x1 = 0.2003	20.1108 kg/m3
273.15 K, 1027.6 kPa, x1 = 0.2003	20.1219 kg/m3
273.15 K, 1037.4 kPa, x1 = 0.2003	20.3384 kg/m3
273.15 K, 1037.8 kPa, x1 = 0.2003	20.347 kg/m3
273.15 K, 1051.5 kPa, x1 = 0.4995	18.6959 kg/m3
273.15 K, 1075.8 kPa, x1 = 0.05023	22.195 kg/m3
273.15 K, 2035.1 kPa, x1 = 0.2003	43.7258 kg/m3
273.15 K, 2035.5 kPa, x1 = 0.2003	43.7371 kg/m3
273.15 K, 2050.8 kPa, x1 = 0.4995	40.4917 kg/m3
273.15 K, 2062 kPa, x1 = 0.05023	46.5645 kg/m3
273.15 K, 2554 kPa, x1 = 0.4995	53.9302 kg/m3
273.15 K, 2562.2 kPa, x1 = 0.05023	61.2253 kg/m3
273.15 K, 3037.3 kPa, x1 = 0.2003	73.9637 kg/m3
273.15 K, 3037.9 kPa, x1 = 0.2003	73.9838 kg/m3
273.15 K, 3053.1 kPa, x1 = 0.05023	77.9966 kg/m3
273.15 K, 3054.4 kPa, x1 = 0.4995	70.1143 kg/m3
273.15 K, 3480.6 kPa, x1 = 0.2003	91.4391 kg/m3 and 91.4331 kg/m3
273.15 K, 3488.2 kPa, x1 = 0.2003	91.7868 kg/m3
273.15 K, 3488.7 kPa, x1 = 0.2003	91.8117 kg/m3
273.15 K, 3489.4 kPa, x1 = 0.2003	91.84 kg/m3
273.15 K, 3507.2 kPa, x1 = 0.2003	92.6352 kg/m3 and 92.638 kg/m3
283.15 K, 518.17 kPa, x1 = 0.2003	9.36982 kg/m3
283.15 K, 519.18 kPa, x1 = 0.05023	9.86023 kg/m3
283.15 K, 538.66 kPa, x1 = 0.4995	8.79999 kg/m3
283.15 K, 1030 kPa, x1 = 0.05023	20.2371 kg/m3
283.15 K, 1031.7 kPa, x1 = 0.4995	17.4887 kg/m3
283.15 K, 1041.5 kPa, x1 = 0.2003	19.5141 kg/m3
283.15 K, 2018.1 kPa, x1 = 0.4995	37.3012 kg/m3
283.15 K, 2025.9 kPa, x1 = 0.05023	42.9555 kg/m3
283.15 K, 2038.1 kPa, x1 = 0.2003	41.2701 kg/m3
283.15 K, 3029.9 kPa, x1 = 0.05023	70.7861 kg/m3
283.15 K, 3032.8 kPa, x1 = 0.4995	62.9635 kg/m3
283.15 K, 3042.8 kPa, x1 = 0.2003	68.0188 kg/m3
283.15 K, 3546.2 kPa, x1 = 0.05023	88.2259 kg/m3
283.15 K, 3550.3 kPa, x1 = 0.4995	79.7057 kg/m3
283.15 K, 4013.1 kPa, x1 = 0.4995	98.6426 kg/m3
283.15 K, 4045.7 kPa, x1 = 0.05023	108.543 kg/m3
283.15 K, 4069.8 kPa, x1 = 0.2003	104.912 kg/m3
283.15 K, 4501.8 kPa, x1 = 0.2003	126.607 kg/m3
283.15 K, 4602.7 kPa, x1 = 0.2003	132.714 kg/m3
283.15 K, 4730.9 kPa, x1 = 0.2003	141.359 kg/m3
283.15 K, 4821.7 kPa, x1 = 0.2003	148.288 kg/m3
293.15 K, 519.57 kPa, x1 = 0.2003	9.04307 kg/m3
293.15 K, 525.66 kPa, x1 = 0.4995	8.25163 kg/m3
293.15 K, 1026.1 kPa, x1 = 0.4995	16.6496 kg/m3
293.15 K, 1034.3 kPa, x1 = 0.2003	18.5618 kg/m3
293.15 K, 2026.9 kPa, x1 = 0.2003	38.8656 kg/m3
293.15 K, 2045.8 kPa, x1 = 0.4995	35.8484 kg/m3
293.15 K, 3032.6 kPa, x1 = 0.4995	58.2406 kg/m3
293.15 K, 3042.1 kPa, x1 = 0.2003	63.2873 kg/m3
293.15 K, 4051.5 kPa, x1 = 0.4995	88.2376 kg/m3
293.15 K, 4055.4 kPa, x1 = 0.2003	93.5899 kg/m3
293.15 K, 4555.2 kPa, x1 = 0.4995	107.86 kg/m3
293.15 K, 5019.3 kPa, x1 = 0.4995	131.598 kg/m3
293.15 K, 5020.8 kPa, x1 = 0.2003	133.141 kg/m3
308.15 K, 542.53 kPa, x1 = 0.4995	8.06912 kg/m3
308.15 K, 1040.9 kPa, x1 = 0.4995	15.9143 kg/m3
308.15 K, 2034.5 kPa, x1 = 0.4995	33.0477 kg/m3
308.15 K, 3050.6 kPa, x1 = 0.4995	53.2563 kg/m3
308.15 K, 4038.3 kPa, x1 = 0.4995	76.6788 kg/m3
308.15 K, 4551.5 kPa, x1 = 0.4995	90.9786 kg/m3
308.15 K, 5013.9 kPa, x1 = 0.4995	105.639 kg/m3
323.15 K, 524.46 kPa, x1 = 0.05023	8.6271 kg/m3
323.15 K, 543.73 kPa, x1 = 0.4995	7.68033 kg/m3
323.15 K, 1024.4 kPa, x1 = 0.4995	14.7964 kg/m3
323.15 K, 1024.9 kPa, x1 = 0.05023	17.2074 kg/m3
323.15 K, 2039.4 kPa, x1 = 0.05023	35.7934 kg/m3
323.15 K, 2040.2 kPa, x1 = 0.4995	31.0101 kg/m3
323.15 K, 3036.4 kPa, x1 = 0.4995	48.806 kg/m3
323.15 K, 3038.7 kPa, x1 = 0.05023	55.972 kg/m3
323.15 K, 4027.4 kPa, x1 = 0.4995	68.9564 kg/m3
323.15 K, 4049.9 kPa, x1 = 0.05023	78.8065 kg/m3
323.15 K, 5024.6 kPa, x1 = 0.4995	92.5708 kg/m3
323.15 K, 5061.4 kPa, x1 = 0.05023	104.85 kg/m3
323.15 K, 5982.2 kPa, x1 = 0.4995	119.675 kg/m3
323.15 K, 6013.8 kPa, x1 = 0.05023	133.393 kg/m3
